The subject of data set [1] is 4th instar larvae of Aedes aegypti. Nature of the data set: Larvicidal bioassay/Dose-response bioassay. It is filed as in vivo. As to conditions: 4th instar Aedes aegypti larvae, 24 h exposure. As for the experimental part:
The early 4th instar larvae of Aedes aegypti were selected for evaluation of mosquito larvicidal activity. The larvae were collected and fed with a mixture powdered yeast and dog biscuits. These were maintained in insectaries till the emergence of adults. The colony was photo periodically maintained at 14 L: 10 D (hours) and with relative humidity 80 ± 5 % at 28 °C (Kumar et al., 2010[16]). Adult mosquitoes were fed with blood for egg maturation. The eggs were allowed to hatch in an enamel bowl lined with Whatman filter paper filled with distilled water. The pupae formed were separated and transferred to insectary for the emergence of adults (da Silva et al., 2016[6]).
Based on the preliminary screening results, different concentrations ranging from 25 to 200 ppm were prepared for DEHP and 25 to 1 ppm for DBP were used. The compounds were subjected to dose response bioassay against 4th instar larvae of Aedes aegypti larvae. Dead larvae were counted after 24 h of exposure, and the percentage mortality was reported from the average of triplicates (Govindarajan et al., 2016[9]).

The next data set deals with CHO. Description: MTT cell proliferation assay. Type of data set: cell-based. To be noted: Cricetulus griseus, 24 hrs. As for the experimental part:
(§1) The MTT cell proliferation was assessed against the cell lines HeLa (ATCC; CCL-2), A549 (ATCC; CCL-185), MCF-7 (ATCC; HTB-22), DU145 (ATCC; HTB-81), CHO (ATCC; CCL-61), HEK293 (ATCC; CRL-1573), NIH3T3 (ATCC; CRL-1658) were procured from the American Type Culture Collection (ATCC). These cell lines were grown and maintained in Dulbecco's modified Eagle's medium with non-essential amino acids, 10 % fetal bovine serum (FBS), 1 mM sodium pyruvate, in humidified atmosphere containing 5 % CO2 at 37 °C (Esumi et al., 2004[7]).
(§2) The cell lines were seeded in 96-well plates in 200 µL aliquots. The test compounds in different concentrations were added and incubated at 37 °C for 24 hrs. Doxorubicin was used as positive control (Prata-Sena et al., 2016[28]).
For orientation: Tetrazolium assays rely on reduction of a dye to a coloured formazan, in cell work by metabolically active cells.

The next data set has as its system DU-145. Nature of the data set: MTT cell proliferation assay. It is filed as cell-based. To be noted: Homo sapiens; DU-145, MTT, 24 hrs. As for the experimental part: as §1, §2
Another data set deals with MCF-7. Description: MTT cell proliferation assay. Type of data set: cell-based. As to conditions: Homo sapiens, MCF7; MCF-7, MTT, 24 hrs. As for the experimental part: as §1, §2
A further data set has as its system HEK 293. Nature of the data set: MTT cell proliferation assay. Type of data set: cell-based. As to conditions: Homo sapiens, HEK293; HEK 293, MTT, 24 hrs. How it is done:
as §1, §2

The next data set has as its system Curvularia pallescens. Also on record: method as in Roy et al., 2006 [30]. To be noted: DBP isolated from Streptomyces albidoflavus, ref Roy et al., 2006 [30]; cited from earlier work.
In data set [2] the test system is B. subtilis. Also on record: method as in Roy et al., 2006 [30]. As to conditions: DBP isolated from Streptomyces albidoflavus, ref Roy et al., 2006 [30]; cited from earlier work.
The next data set has as its system A549 cells. Also on record: method as in Hsu et al., 2011 [14]. As to conditions: ref Hsu et al., 2011 [14]; cited from earlier work.
The next data set has as its system S. typhi. Also on record: method as in Roy et al., 2006 [30]. As to conditions: DBP isolated from Streptomyces albidoflavus, ref Roy et al., 2006 [30]; cited from earlier work.
The subject of the next data set is A. niger. Also noted: method as in Roy et al., 2006 [30]. To be noted: DBP isolated from Streptomyces albidoflavus, ref Roy et al., 2006 [30]; cited from earlier work.
For the next data set, the system named is E. coli. Also on record: method as in Roy et al., 2006 [30]. To be noted: DBP isolated from Streptomyces albidoflavus, ref Roy et al., 2006 [30]; cited from earlier work.
Data set [3] deals with Staphylococcus epidermidis (MTCC 435). Description: Anti-bacterial activity, MIC in 96-well broth dilution. Type of data set: cell-based. As to conditions: MTCC435, S. epidermidis, 24 hrs at 37 °C. As for the experimental part:
(§3) The antibacterial evaluation was carried out against Gram positive bacteria; Staphylococcus epidermidis (MTCC 435), Bacillus subtilis (MTCC 441), Staphylococcus aureus (MTCC 96), and Gram negative bacteria; Pseudomonas aeruginosa (MTCC 741), E. coli (MTCC 443) and Klebsiella pneumoniae (MTCC 618). Brevibacterium mcbrellneri MTCC (3913) was chosen for isolation of biologically active compounds.
(§4) The minimum inhibitory concentrations (MIC) were recorded against Staphylococcus aureus, Bacillus subtilis, Staphylococcus epidermidis, Pseudomonas aeruginosa, Escherichia coli and Klebsiella pneumoniae. In brief 96-well plates were distributed with Nutrient broth and the compounds in different concentrations (150 μg/mL to 0.5μg/mL). 50 μL microbial suspensions were seeded into each well (0.5 MacFarland standards) to make the final volume of 200 μl with culture broth. The plates were incubated for 24 hrs at 37 °C. The lowest concentration, at which the visible inhibition was recorded, was considered as MIC. Streptomycin and Benzylpenicillin were used as positive controls.
Background: Broth dilution looks for growth in wells or tubes with falling amounts of substance.

A further data set concerns E. coli (MTCC 443). The data set is described as above. It is filed as cell-based. To be noted: Escherichia coli, MTCC443, 24 hrs at 37 °C. As for the experimental part: as §3, §4
The subject of data set [4] is Staphylococcus aureus (MTCC 96). The description is as above. Type of data set: cell-based. As to conditions: MTCC96, S. aureus, 24 hrs at 37 °C. How it is done: as §3, §4
In data set [5] the test system is Klebsiella pneumoniae (MTCC 618). The description is as above. Type of data set: cell-based. To be noted: MTCC618, K. pneumoniae, 24 hrs at 37 °C. As for the experimental part:
as §3, §4

For data set [6], the system named is Bacillus subtilis (MTCC 441). The description is as above. As to conditions: MTCC441, B. subtilis, 24 hrs at 37 °C. It is filed as cell-based. As for the experimental part:
as §3, §4

For data set [7], the system named is Pseudomonas aeruginosa (MTCC 741). The description is as above. Type of data set: cell-based. As to conditions: MTCC741, P. aeroginosa, 24 hrs at 37 °C. As for the experimental part: as §3, §4
For the next data set, the system named is S. cerevisiae. Also noted: method as in Roy et al., 2006 [30]. To be noted: DBP isolated from Streptomyces albidoflavus, ref Roy et al., 2006 [30]; cited from earlier work.
For data set [8], the system named is B. subtilis. Also noted: method as in Habib and Karim, 2009 [10]. As to conditions: DEHP isolated from Calotropis gigantean, ref Habib and Karim, 2009 [10]; cited from earlier work.
On the set-up of data set [9]: method as in Habib and Karim, 2009 [10]. As to conditions: DEHP isolated from Calotropis gigantean; ref Habib and Karim, 2009 [10]; cited from earlier work.
A further data set concerns HaCaT cells. Also on record: method as in Peropadre et al., 2015 [26]. To be noted: ref Peropadre et al., 2015 [26]; cited from earlier work.
The test system of another data set is Sarcina lutea. Also on record: method as in Habib and Karim, 2009 [10]. As to conditions: DEHP isolated from Calotropis gigantean, ref Habib and Karim, 2009 [10]; cited from earlier work.
Another data set has as its system HePG2 cells. Also on record: method as in Lyu et al., 2016 [19]. To be noted: ref Lyu et al., 2016 [19]; cited from earlier work.

Converted amounts (≈) assume the structure as drawn. Like-named read-outs stand apart in the source and are kept apart here.

The term LC50 denotes the concentration that kills 50% of the test population. The term mortality denotes the share of the test organisms that died. A lower mortality goes with more survivors. The term IC50 denotes the concentration at which inhibition is half-maximal. Low readings indicate higher potency, high ones lower potency. A word on the MIC: it is the lowest concentration that inhibits growth of the organism. For `CCCCOC(=O)c1ccccc1C(=O)OCCCC` [DBP, dibutyl phthalate], the LC50 in data set [1] came out at 1.62 ppm. Moreover, the mortality at 25 ppm in data set [1] (at 25 ppm) was 100%. Moreover, the IC50 in the data set with CHO was determined as 36 ± 8.6 µg/mL (≈ 129 µM); with DU-145, 31.2 ± 8.7 µg/mL (≈ 112 µM); with MCF-7, 32.4 ± 3.6 µg/mL (≈ 117 µM); with HEK 293 it was 19.8 ± 10 µg/mL (≈ 71 µM). The MIC was 117 µg/mL (≈ 420 µM) in the data set on Curvularia pallescens; 84 µg/mL (≈ 302 µM) with B. subtilis [2]; 76 µg/mL (≈ 273 µM) with S. typhi; 98 µg/mL (≈ 352 µM) in the data set with A. niger; 53 µg/mL (≈ 190 µM) in the data set on E. coli; 18.8 µg/mL (≈ 67.4 µM) in data set [3]. The MIC was 37.5 µg/mL (≈ 135 µM) against E. coli (MTCC 443); 37.5 µg/mL (≈ 135 µM) in data set [4]; 75 µg/mL (≈ 269 µM) in data set [5]; 18.8 µg/mL (≈ 67.4 µM) in data set [6]; 37.5 µg/mL (≈ 135 µM) in data set [7]; 92 µg/mL (≈ 331 µM) in the data set with S. cerevisiae. For the same compound, the cytotoxic activity result in the data set on A549 cells was “Cytotoxic activity”.

In data set [1], `CCCCC(CC)COC(=O)c1ccccc1C(=O)OCC(CC)CCCC` (centres unmarked) [DEHP, di-(2-ethylhexyl) phthalate] gave an LC50 of 47.65 ppm. The IC50 was determined as 193 ± 5.4 µg/mL (≈ 494 µM) in the data set with CHO, 33.5 ± 7.7 µg/mL (≈ 85.7 µM) in the data set on DU-145 and 46.55 ± 0.1 µg/mL (≈ 119 µM) in the data set with MCF-7. Also, the MIC in the data set on B. subtilis [8] is 32 µg/mL (≈ 81.9 µM); in the data set on Sarcina lutea, 32 µg/mL (≈ 81.9 µM); in data set [3], 9.37 µg/mL (≈ 24 µM); against E. coli (MTCC 443), 37.5 µg/mL (≈ 96 µM); in data set [4], 18.8 µg/mL (≈ 48 µM); in data set [5], 75 µg/mL (≈ 192 µM). Further, the figures for the MIC in data set [6] and in [7] were 37.5 µg/mL (≈ 96 µM) and 75 µg/mL (≈ 192 µM), respectively. For the same compound, the antifungal property result in data set [9] was “negligible”. Further, the cell cycle effect result in the data set on HaCaT cells is on record as “cell cycle arrest at G1 phase”. Further, the “apoptosis / cell cycle effect” value with HePG2 cells is reported as “apoptosis without cell cycle arrest”.

Take `COc1cccc2c1C(=O)c1c(O)c3c(c(O)c1C2=O)C[C@@](O)(C(=O)CO)C[C@@H]3O[C@H]1C[C@H](N)[C@H](O)[C@H](C)O1` [doxorubicin, Doxorubicin, reference compound]: in the data set on HEK 293, 21.8 ± 8.8 µg/mL (≈ 40.1 µM) corresponded to half-maximal inhibition (IC50).

Source of the values: publication PMC5427467, “Isolation and characterization of phthalates from Brevibacterium mcbrellneri that cause cytotoxicity and cell cycle arrest” (EXCLI Journal, 2017).
